Values quoted from earlier work as cited in patent publication US9215889B2, “Steviol glycoside” (MORITA KAGAKU KOGYO CO., LTD., priority 2008, dated 2015).

Settings: for taste quality (in words): background comparison of ST and RA

Structure (SMILES) | taste quality (in words) | degree of sweetness (relative to sucrose)
C=C1C[C@@]23CC[C@H]4[C@@](C)(CCC[C@@]4(C)C(=O)O[C@@H]4O[C@H](CO)[C@@H](O)[C@H](O)[C@H]4O)[C@@H]2CC[C@]1(O[C@@H]1O[C@H](CO)[C@@H](O)[C@H](O[C@@H]2O[C@H](CO)[C@@H](O)[C@H](O)[C@H]2O)[C@H]1O[C@@H]1O[C@H](CO)[C@@H](O)[C@H](O)[C@H]1O)C3 [RA, Rebaudioside A] | good quality of sweetness | 
C=C1C[C@@]23CC[C@H]4[C@@](C)(CCC[C@@]4(C)C(=O)O[C@@H]4O[C@H](CO)[C@@H](O)[C@H](O)[C@H]4O)[C@@H]2CC[C@]1(O[C@@H]1O[C@H](CO)[C@@H](O)[C@H](O)[C@H]1O[C@@H]1O[C@H](CO)[C@@H](O)[C@H](O)[C@H]1O)C3 [ST, Stevioside] | an unpleasant taste of bitterness remains in the mouth | 300 times that of sucrose
